Results taken from ChEMBL document CHEMBL1201862, “PubChem BioAssay data set” (2004).
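Where inhibition never reached the appropriate level, the endpoint shown equals the highest concentration tested. Otherwise, values were interpolated linearly from a five-concentration, 48-hour dose response in 96-well plates. GI50 marks 50% less growth.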 Calls of active or inactive are those of the source. No stated cut-off is given here; in the data, active = GI50 up to about 1.1 µM and inactive = higher.

Assays:
Assay in all cases: inhibition of tumour cell growth, NCI panel, 48 h
[1] = tested on: RXF 631
[2] = tested on: M19-MEL
[3] = tested on: HOP-18
[4] = tested on: KM-20L2
[5] = tested on: XF498
[6] = tested on: SNB-78
[7] = tested on: DMS-273
[8] = tested on: DLD-1

Structure (SMILES)	GI50 [1]	GI50 [2]	GI50 [3]	GI50 [4]	GI50 [5]	GI50 [6]	GI50 [7]	GI50 [8]
NC(=O)/C(=N\NC(=O)C[n+]1ccccc1)C1NC(=O)NC1=O (stereo not given)	> 100 µM (inactive)	> 100 µM (inactive)	> 100 µM (inactive)	> 100 µM (inactive)	> 100 µM (inactive)	> 100 µM (inactive)	> 100 µM (inactive)	> 100 µM (inactive)
C[C@]12CCC3[C@@H](CC[C@@H]4c5nonc5CC[C@]34C)C1CC[C@@H]2O (stereo not given in full)	33.1 µM (inactive)	48 µM (inactive)	36.4 µM (inactive)	43.7 µM (inactive)	20.3 µM (inactive)	38.6 µM (inactive)	23.9 µM (inactive)	26.3 µM (inactive)
CCN(CC)CC(C)(C)C(=O)/C=C/c1cccc(/C=C/C(=O)C(C)(C)CN(CC)CC)c1	1.09 µM (active)	0.959 µM (active)	1.51 µM (inactive)	1.07 µM (active)	0.409 µM (active)	2.21 µM (inactive)	0.476 µM (active)	0.237 µM (active)
C=CC1(C(=O)O)CCC(C(C)(C)C)CC1 (stereo not given)	> 100 µM (inactive)	> 100 µM (inactive)	> 100 µM (inactive)	> 100 µM (inactive)	> 100 µM (inactive)	> 100 µM (inactive)	> 100 µM (inactive)	> 100 µM (inactive)
C[C@@H]1C[C@@H]2C(=O)N(c3ccccc3)C(=O)[C@@H]2c2[nH]c3ccc(Br)cc3c21	28.8 µM (inactive)	70.8 µM (inactive)	24.1 µM (inactive)	> 100 µM (inactive)	26.1 µM (inactive)	25.1 µM (inactive)	> 100 µM (inactive)	44.2 µM (inactive)
